# In patent US8173682B2, “Substituted pyridones as inhibitors of poly(ADP-ribose) polymerase (PARP)” (Aventis Pharmaceuticals Inc., priority 2004, dated 2012):
# Structures can show the parent of a compound that is named as a salt.
# Target: recombinantly expressed human PARP-1 enzyme (Homo sapiens, UniProt P09874)
# Test: PARP enzyme assay, Method B (tritium-labeled NAD incorporation)
# Type: biochemical
# Settings: Method B; 200 μM NAD, room temperature 1 hour, pH 8.0; read-out: IC50 (μM)/Method B
# Procedure: Method B: PARP Enzyme Assay:
# The IC50 is determined in this method by incubating the substances to be tested with the DNA-activated, recombinantly expressed and purified PARP-1 enzyme. Specifically, various concentrations of the test substance are incubated in 50 μL of reaction solution, which contains 50 mM Tris, 5 mM MgCl2, 1 mM DTT, 200 μM NAD, 0.1 m Ci/mL tritium-labeled NAD, 0.1 mg/mL DNA, 0.1 mg/mL histones, 2 μg/mL recombinantly expressed human PARP-1 enzyme, pH=8.0, at room temperature for 1 hour. The reaction is stopped by adding 150 μL of 20% trichloroacetic acid, and the radiolabeled protein constituents are precipitated. After incubation on ice for 10 minutes, the labeled, insoluble constituents are separated off through a glass fiber filter and, after washing with 20% trichloroacetic acid three times, the radioactivity incorporated by the PARP-1 enzyme is measured by radioluminescence. Consideration of the incorporation rates determined in this way as a function of the concentration of the test substance results in IC50 as the concentration of the test substance which reduces the incorporation rate to half the maximum value attainable (incubation without inhibitor).
# The IC50 (fifty percent inhibitory concentration of the test substance in a solution—expressed at micromolar (μM) concentration) measured in accordance with these procedures for the compounds of this invention are summarized in Table 1.
# Sequence of recombinantly expressed human PARP-1 enzyme (P09874 whole entry): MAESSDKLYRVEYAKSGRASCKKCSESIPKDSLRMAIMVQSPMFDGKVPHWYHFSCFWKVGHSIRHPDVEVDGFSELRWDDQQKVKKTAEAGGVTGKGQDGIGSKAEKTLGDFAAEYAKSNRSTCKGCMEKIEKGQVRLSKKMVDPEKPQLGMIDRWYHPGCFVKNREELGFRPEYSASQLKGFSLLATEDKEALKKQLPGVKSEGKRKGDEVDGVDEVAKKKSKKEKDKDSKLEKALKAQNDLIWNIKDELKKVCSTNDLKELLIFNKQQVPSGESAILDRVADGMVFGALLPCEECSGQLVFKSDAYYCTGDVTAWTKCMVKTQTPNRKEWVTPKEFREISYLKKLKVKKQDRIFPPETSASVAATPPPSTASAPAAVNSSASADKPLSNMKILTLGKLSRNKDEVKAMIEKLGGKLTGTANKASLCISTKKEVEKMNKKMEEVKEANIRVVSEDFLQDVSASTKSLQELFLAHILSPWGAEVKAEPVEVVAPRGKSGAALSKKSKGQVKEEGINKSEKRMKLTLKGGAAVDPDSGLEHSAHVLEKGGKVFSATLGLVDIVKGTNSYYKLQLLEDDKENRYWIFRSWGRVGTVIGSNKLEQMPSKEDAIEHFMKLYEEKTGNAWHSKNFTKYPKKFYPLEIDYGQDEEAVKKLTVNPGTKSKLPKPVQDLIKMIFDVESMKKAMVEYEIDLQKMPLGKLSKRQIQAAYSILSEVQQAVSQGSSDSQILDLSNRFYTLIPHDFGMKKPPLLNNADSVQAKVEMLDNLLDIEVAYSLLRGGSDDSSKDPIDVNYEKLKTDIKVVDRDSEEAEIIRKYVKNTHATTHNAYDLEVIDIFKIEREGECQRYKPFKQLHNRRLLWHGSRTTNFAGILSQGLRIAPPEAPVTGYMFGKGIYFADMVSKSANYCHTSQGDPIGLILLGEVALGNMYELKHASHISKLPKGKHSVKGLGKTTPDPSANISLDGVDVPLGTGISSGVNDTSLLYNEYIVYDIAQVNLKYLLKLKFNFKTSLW
row,SMILES,IC50 [µM]
1,"CCc1cc(-c2cncc(C(=O)NC3CCCC3)c2)c(C)[nH]c1=O [Example 219, 5′-Ethyl-2′-methyl-6′-oxo-1′,6′-dihydro-[3,3′]bipyridinyl-5-carboxylic acid cyclopentylamide]",1.53
2,"CCc1cc(-c2cncc(C(=O)N3CCN(C(=O)C4CC4)CC3)c2)c(C)[nH]c1=O [Example 252, 5′-(4-Cyclopropanecarbonyl-piperazine-1-carbonyl)-5-ethyl-2-methyl-1H-[3,3′]bipyridinyl-6-one]",6.1
3,"CCc1cc(-c2ccc(CNC(=O)c3cccc(N(C)C)c3)o2)c(C)[nH]c1=O [Example 275, 3-Dimethylamino-N-[5-(5-ethyl-2-methyl-6-oxo-1,6-dihydro-pyridin-3-yl)-furan-2-ylmethyl]-benzamide]",1.26
4,"CCc1cc(-c2cncc(C(=O)NCCc3ccc(C(=O)O)cc3)c2)c(C)[nH]c1=O [Example 243, 4-{2-[(5′-Ethyl-2′-methyl-6′-oxo-1′,6′-dihydro-[3,3′]bipyridinyl-5-carbonyl)-amino]-ethyl}-benzoic acid]",2.29
5,"CCc1cc(-c2cccc(CNCc3ccccn3)n2)c(C)[nH]c1=O [Example 182H, 5′-Ethyl-2′-methyl-6-{[(pyridin-2-ylmethyl)-amino]-methyl}-1′H-[2,3′]bipyridinyl-6′-one]",1.11
6,"CCc1cc(-c2ccc(CNC(=O)C3CCCC3)o2)c(C)[nH]c1=O [Example 269, Cyclopentanecarboxylic acid [5-(5-ethyl-2-methyl-6-oxo-1,6-dihydro-pyridin-3-yl)-furan-2-ylmethyl]-amide]",1.97
7,"CCc1cc(-c2ccc(CNC(=O)c3ccccc3)o2)c(C)[nH]c1=O [Example 271, N-[5-(5-Ethyl-2-methyl-6-oxo-1,6-dihydro-pyridin-3-yl)-furan-2-ylmethyl]-benzamide]",0.5
8,"CCc1cc(-c2ccc(CNCCc3ccc(Cl)c(S(N)(=O)=O)c3)o2)c(C)[nH]c1=O [Example 182C, 2-Chloro-5-(2-{[5-(5-ethyl-2-methyl-6-oxo-1,6-dihydro-pyridin-3-yl)-furan-2-ylmethyl]-amino}-ethyl)-benzenesulfonamide]",0.28
9,"CCc1cc(-c2ccc(C(=O)N3CCCC3)cn2)c(C)[nH]c1=O [Example 211, 5′-Ethyl-2′-methyl-5-(pyrrolidine-1-carbonyl)-1′H-[2,3′]bipyridinyl-6′-one]",8.6
10,"CCc1cc(-c2cncc(C(=O)NCCc3ccccn3)c2)c(C)[nH]c1=O [Example 264, 5′-Ethyl-2′-methyl-6′-oxo-1′,6′-dihydro-[3,3′]bipyridinyl-5-carboxylic acid (2-pyridin-2-yl-ethyl)-amide]",3.14
11,"CCc1cc(-c2cncc(C(=O)NCCc3ccccc3O)c2)c(C)[nH]c1=O [Example 232, 5′-Ethyl-2′-methyl-6′-oxo-1′,6′-dihydro-[3,3′]bipyridinyl-5-carboxylic acid [2-(2-hydroxy-phenyl)-ethyl]-amide]",0.82
12,"CCc1cc(-c2cncc(C(=O)NCC3CC(c4ccncc4)=NO3)c2)c(C)[nH]c1=O (stereo not shown) [Example 257, 5′-Ethyl-2′-methyl-6′-oxo-1′,6′-dihydro-[3,3′]bipyridinyl-5-carboxylic acid (3-pyridin-4-yl-4,5-dihydro-isoxazol-5-ylmethyl)-amide]",0.57
13,CCc1cc(-c2ccc(CN3CCCC3)o2)c(C)[nH]c1=O [Example 181],0.49
14,"CCc1cc(-c2cncc(C(=O)Nc3ccc(C(C)=O)cc3)c2)c(C)[nH]c1=O [Example 246, 5′-Ethyl-2′-methyl-6′-oxo-1′,6′-dihydro-[3,3′]bipyridinyl-5-carboxylic acid (4-acetyl-phenyl)-amide]",0.64
15,"CCc1cc(-c2cncc(C(=O)NC(CC)c3ccc(C)nc3)c2)c(C)[nH]c1=O (stereo not shown) [Example 224, 5′-Ethyl-2′-methyl-6′-oxo-1′,6′-dihydro-[3,3′]bipyridinyl-5-carboxylic acid [1-(6-methyl-pyridin-3-yl)-propyl]-amide]",5.9
16,"CCc1cc(-c2ccc(S(=O)(=O)NCc3ccc(OC)cc3)s2)c(C)[nH]c1=O [Example 122B, 5-(5-Ethyl-2-methyl-6-oxo-1,6-dihydro-pyridin-3-yl)-thiophene-2-sulfonic acid 4-methoxy-benzylamide]",0.13
17,"CCc1cc(-c2cc(C(=O)NCCc3ccncc3)ccn2)c(C)[nH]c1=O [Example 218, 5′-Ethyl-2′-methyl-6′-oxo-1′,6′-dihydro-[2,3′]bipyridinyl-4-carboxylic acid (2-pyridin-4-yl-ethyl)-amide]",0.58

row,SMILES,IC50 [µM]
1,"CCc1cc(-c2cncc(C(=O)NCCN3C(=O)CSC3=O)c2)c(C)[nH]c1=O [Example 254, 5′-Ethyl-2′-methyl-6′-oxo-1′,6′-dihydro-[3,3′]bipyridinyl-5-carboxylic acid [2-(2,4-dioxo-thiazolidin-3-yl)-ethyl]-amide]",11.7
2,"CCc1cc(-c2cccc(C(=O)NCCc3ccc([N+](=O)[O-])cc3)n2)c(C)[nH]c1=O [Example 205, 5′-Ethyl-2′-methyl-6′-oxo-1′,6′-dihydro-[2,3′]bipyridinyl-6-carboxylic acid [2-(4-nitro-phenyl)-ethyl]-amide]",0.57
3,"CCc1cc(-c2ccc(S(=O)(=O)NCc3ccc(S(C)(=O)=O)cc3)s2)c(C)[nH]c1=O [Example 122C, 5-(5-Ethyl-2-methyl-6-oxo-1,6-dihydro-pyridin-3-yl)-thiophene-2-sulfonic acid 4-methanesulfonyl-benzylamide]",0.86
4,"CCc1cc(-c2ccc(C(=O)NCc3ccccn3)cn2)c(C)[nH]c1=O [Example 208, 5′-Ethyl-2′-methyl-6′-oxo-1′,6′-dihydro-[2,3′]bipyridinyl-5-carboxylic acid (pyridin-2-ylmethyl)-amide]",14.8
5,"CCc1cc(-c2ccc(C=NOCCN3CCCC3)o2)c(C)[nH]c1=O [Example 199, 3-Ethyl-2-methyl-6-oxo-1,6-dihydropyridin-3-yl)furan-2-carbaldehyde O-(2-pyrrolidin-1-ylethyl)oxime hydrochloride]",0.18
6,"CCc1cc(-c2cncc(C(=O)Nc3cc(C(C)(C)C)[nH]n3)c2)c(C)[nH]c1=O [Example 258, 5′-Ethyl-2′-methyl-6′-oxo-1′,6′-dihydro-[3,3′]bipyridinyl-5-carboxylic acid (5-tert-butyl-1H-pyrazol-3-yl)-amide]",0.62
7,"CCc1cc(-c2cncc(C(=O)NC[C@H](C)O)c2)c(C)[nH]c1=O [Example 229, 5′-Ethyl-2′-methyl-6′-oxo-1′,6′-dihydro-[3,3′]bipyridinyl-5-carboxylic acid (2-hydroxy-propyl)-amide]",4.7
8,"CCCCNC(=O)c1cncc(-c2cc(CC)c(=O)[nH]c2C)c1 [Example 223, 5′-Ethyl-2′-methyl-6′-oxo-1′,6′-dihydro-[3,3′]bipyridinyl-5-carboxylic acid butylamide]",0.92
9,"CCc1cc(-c2ccc(C(=O)NC3CCCC3)cn2)c(C)[nH]c1=O [Example 212, 5′-Ethyl-2′-methyl-6′-oxo-1′,6′-dihydro-[2,3′]bipyridinyl-5-carboxylic acid cyclopentylamide]",12.9
10,"CCc1cc(-c2ccc(S(=O)(=O)NCc3ccccn3)s2)c(C)[nH]c1=O [Example 31, 5-(5-Ethyl-2-methyl-6-oxo-1,6-dihydropyridin-3-yl)thiophene-2-sulfonic acid (pyridin-2-yl)methylamide hydrochloride]",0.44
11,"CCCCNC(=O)c1cccc(-c2cc(CC)c(=O)[nH]c2C)n1 [Example 206, 5′-Ethyl-2′-methyl-6′-oxo-1′,6′-dihydro-[2,3′]bipyridinyl-6-carboxylic acid butylamide]",1.14
12,"CCc1cc(-c2ccc(CNCc3ccc(NC(C)=O)cc3)o2)c(C)[nH]c1=O [Example 182B, N-[4-({[5-(5-Ethyl-2-methyl-6-oxo-1,6-dihydro-pyridin-3-yl)-furan-2-ylmethyl]-amino}-methyl)-phenyl]-acetamide]",0.29
13,"CCc1cc(-c2cncc(C(=O)NCC(N)=O)c2)c(C)[nH]c1=O [Example 225, 5′-Ethyl-2′-methyl-6′-oxo-1′,6′-dihydro-[3,3′]bipyridinyl-5-carboxylic acid carbamoylmethyl-amide]",5.5
14,"CCc1cc(-c2ccc(CNC(=O)c3ccc(OC)cc3)o2)c(C)[nH]c1=O [Example 272, N-[5-(5-Ethyl-2-methyl-6-oxo-1,6-dihydro-pyridin-3-yl)-furan-2-ylmethyl]-4-methoxy-benzamide]",0.44
15,"CCc1cc(-c2ccc(S(=O)(=O)N3CCN(c4ncccn4)CC3)s2)c(C)[nH]c1=O [Example 117, 3-Ethyl-6-methyl-5-[5-(4-pyrimidin-2-yl-piperazine-1-sulfonyl)thiophen-2-yl]-1H-pyridin-2-one hydrochloride]",25.5
16,"CCc1cc(-c2ccc(C(=O)N3CCC(O)C3)cn2)c(C)[nH]c1=O (stereo not shown) [Example 210, 5′-Ethyl-5-(3-hydroxy-pyrrolidine-1-carbonyl)-2′-methyl-1′H-[2,3′]bipyridinyl-6′-one]",12.1
17,"CCc1cc(-c2cncc(C(=O)NCc3nccs3)c2)c(C)[nH]c1=O [Example 250, 5′-Ethyl-2′-methyl-6′-oxo-1′,6′-dihydro-[3,3′]bipyridinyl-5-carboxylic acid (thiazol-2-ylmethyl)-amide]",0.64
